Consider 17 compounds from PubChem BioAssay (NCI).

Some test systems named below: DU-145 prostate; HT29 colon; MCF7 breast; OVCAR-8 ovarian; RXF 393 renal; SK-OV-3 ovarian; U251 CNS; UACC-257 melanoma; SR leukemia; BT-549 breast.
What all share (experiment): NCI anticancer screen, dose series, 48 h

The structures appear in SMILES notation.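 Cells were grown in 96-well plates and exposed to each compound for 48 hours at five concentrations; endpoints were interpolated linearly between bracketing concentrations, or set to the highest concentration if not reached. TGI denotes the concentration required for complete inhibition of growth.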 Where a SMILES comes first, the peptide text is derived from it. [ ]: non-standard residue; d: D form. The star is where a group is joined. Cbz = O=C(OCc1ccccc1)*; Aib = CC(C)(N)C(=O)O

Regarding `CCOC(=O)Cc1cc(=O)[nH]c(-n2[nH]c(C)c(CCO)c2=O)n1`, the TGI in the assay with DU-145 prostate, in the assay with HT29 colon, in the assay on MCF7 breast, with OVCAR-8 ovarian, with RXF 393 renal and with SK-OV-3 ovarian was over 100 µM throughout. In addition, the TGI with U251 CNS and in the assay on UACC-257 melanoma was over 100 µM throughout.

As to `N#Cc1c(N2CCCC2)nsc1Nc1ccccc1`, the TGI with DU-145 prostate, with HT29 colon, with OVCAR-8 ovarian, in the assay with RXF 393 renal, with SR leukemia and with UACC-257 melanoma was over 100 µM in each case.

Regarding `Cc1cc(OCC(O)CO)ccc1Cl` (stereo unspecified), the TGI with HT29 colon, with OVCAR-8 ovarian, in the assay with RXF 393 renal, with SK-OV-3 ovarian, in the assay with SR leukemia and with U251 CNS was over 100 µM in each case. Also, in the assay on UACC-257 melanoma, the TGI was over 100 µM.

Take `COc1ccc(/C=C2\OC(=O)C(Cl)=C2c2ccc(OC)c(Cl)c2)cc1`: the TGI in the assay on DU-145 prostate was over 100 µM; with HT29 colon, over 100 µM; with MCF7 breast, 46.1 µM; in the assay on OVCAR-8 ovarian it was 60.8 µM; in the assay on RXF 393 renal, 29.5 µM; with SK-OV-3 ovarian, over 100 µM. For the same compound, the TGI in the assay with SR leukemia, with U251 CNS and in the assay with UACC-257 melanoma was over 100 µM throughout.

`NC(=S)NS(=O)(=O)c1ccc(Cl)cc1`: the TGI in the assay with BT-549 breast, with DU-145 prostate, with HT29 colon, in the assay on MCF7 breast, in the assay with OVCAR-8 ovarian and with RXF 393 renal was over 100 µM in each case. In addition, the TGI with SK-OV-3 ovarian, in the assay on U251 CNS and in the assay on UACC-257 melanoma was over 100 µM in each case.

`CCN(CC)C(=O)c1cc([N+](=O)[O-])c(=O)n2c1[nH]c1ccccc12`: the TGI in the assay with DU-145 prostate, with HT29 colon, in the assay on OVCAR-8 ovarian, in the assay with RXF 393 renal, in the assay with SK-OV-3 ovarian and in the assay on SR leukemia was over 100 µM throughout. This compound returned a TGI with UACC-257 melanoma of over 100 µM.

Regarding `CC(C)=C=CP(=O)(O)c1ccccc1`, the TGI in the assay on DU-145 prostate, in the assay with HT29 colon, in the assay on MCF7 breast, in the assay on OVCAR-8 ovarian, with SK-OV-3 ovarian and in the assay with SR leukemia was over 100 µM throughout. Besides, the TGI in the assay on U251 CNS and in the assay on UACC-257 melanoma was over 100 µM in each case.

For `Clc1ncnc2c1nc(C#Cc1ccccc1)n2C1CCCCO1` (stereo unspecified), the TGI in the assay with BT-549 breast was found to be 4.1 µM; in the assay on DU-145 prostate, 2.79 µM; in the assay with HT29 colon, 3.98 µM; in the assay with MCF7 breast, 3.22 µM; with OVCAR-8 ovarian it was 12.4 µM; with SK-OV-3 ovarian, 21.3 µM. In addition, the results for the TGI with U251 CNS and in the assay with UACC-257 melanoma were 4.29 µM and 6.01 µM, respectively.

Turning to `COc1cc(-c2nc(SC)nc3c2CCc2ccccc2-3)cc(OC)c1OC`, the TGI in the assay on BT-549 breast, with DU-145 prostate, with HT29 colon, with MCF7 breast, with OVCAR-8 ovarian and in the assay on RXF 393 renal was over 100 µM each time. Further, the TGI in the assay on SK-OV-3 ovarian, with U251 CNS and with UACC-257 melanoma was over 100 µM each time.

As to `CC(C)(NC(=O)C(C)(C)NC(=O)OCc1ccccc1)C(=O)O` (Cbz-[Aib]-[Aib]-OH), the TGI in the assay with DU-145 prostate, in the assay with HT29 colon, in the assay on MCF7 breast, in the assay with OVCAR-8 ovarian, in the assay with SK-OV-3 ovarian and in the assay on SR leukemia was over 100 µM each time. Further, the TGI in the assay with U251 CNS and in the assay on UACC-257 melanoma was over 100 µM in each case.

As for `Cc1ccc(S(=O)(=O)N/N=C\c2c3ccccc3[n+](C)c3ccccc23)cc1`, the TGI in the assay with HT29 colon is 62.6 µM; in the assay on OVCAR-8 ovarian, over 100 µM; in the assay with RXF 393 renal, 43.6 µM; with SK-OV-3 ovarian, over 100 µM; in the assay on U251 CNS, 71.3 µM; with UACC-257 melanoma, over 100 µM.

Regarding `Cc1ccc2c(=O)cc(-c3cccc(F)c3)[nH]c2n1`, the TGI was 1.23 µM with DU-145 prostate; 1.11 µM in the assay on HT29 colon; 1.87 µM in the assay with OVCAR-8 ovarian; over 100 µM with RXF 393 renal; over 74.7 µM in the assay on U251 CNS; over 100 µM in the assay on UACC-257 melanoma.

Take `O=NNc1c[nH]c(=O)[nH]c1=O`: the TGI in the assay on DU-145 prostate, in the assay on MCF7 breast, in the assay with OVCAR-8 ovarian, in the assay with RXF 393 renal, in the assay with SK-OV-3 ovarian and in the assay with U251 CNS was over 100 µM throughout. This compound yielded a TGI in the assay on UACC-257 melanoma of over 100 µM.

Regarding `O=C(O)c1cccc(S(=O)(=O)NN2C(=O)CSC2c2c(O)ccc3ccccc23)c1` (stereo unspecified), the TGI is over 100 µM in the assay on DU-145 prostate; 69.2 µM in the assay with HT29 colon; 15.7 µM with OVCAR-8 ovarian; 89.1 µM with RXF 393 renal; over 100 µM in the assay on SK-OV-3 ovarian; 59.6 µM in the assay on SR leukemia. Also, the TGI in the assay with U251 CNS and with UACC-257 melanoma was over 100 µM in each case.

In the case of `Cn1c(-c2c(C3=CC(=O)N(c4ccccc4)C3=O)c3ccccc3n2C)cc2ccccc21`, the TGI in the assay with DU-145 prostate, in the assay with HT29 colon, in the assay on MCF7 breast, with OVCAR-8 ovarian, with RXF 393 renal and in the assay on SK-OV-3 ovarian was over 100 µM in each case. The TGI with SR leukemia, with U251 CNS and in the assay with UACC-257 melanoma was over 100 µM throughout.

In the case of `NNS(=O)(=O)c1ccc(/C=C2\NC(=O)NC2=O)cc1`, the TGI with BT-549 breast, in the assay on DU-145 prostate, with HT29 colon, in the assay with MCF7 breast, in the assay on OVCAR-8 ovarian and in the assay with SK-OV-3 ovarian was over 100 µM throughout. The TGI in the assay with U251 CNS and with UACC-257 melanoma was over 100 µM in each case.

`CC(C)N1[C@@H]2CCCC[C@H]2N(C(C)C)[P+]1=O`: the TGI in the assay on DU-145 prostate, in the assay with HT29 colon, in the assay on MCF7 breast, in the assay on OVCAR-8 ovarian, in the assay on RXF 393 renal and with SK-OV-3 ovarian was over 100 µM throughout. The TGI in the assay with SR leukemia and in the assay on UACC-257 melanoma was over 100 µM in each case.
